In ChEMBL document CHEMBL1671849, “Novel, Broad Spectrum Anti-Cancer Agents Containing the Tricyclic 5:7:5-Fused Diimidazodiazepine Ring System” (ACS Med Chem Lett, 2011):

Tests used:
A549 = test: Cytotoxicity against human A549 cells after 72 hrs by WST1 assay; format: functional, cell-based; settings: A549, 72 h
NCI-H460 = test: Cytotoxicity against human H460 cells after 72 hrs by WST1 assay; format: functional, cell-based; settings: NCI-H460, 72 h
MCF7 [1] = test: Cytotoxicity against human MCF7 cells after 72 hrs by WST1 assay; format: functional, cell-based; settings: MCF7, 72 h
MDA-MB-231 = test: Cytotoxicity against human MDA-MB-231 cells after 72 hrs by WST1 assay; format: functional, cell-based; settings: MDA-MB-231, 72 h
OVCAR-3 = test: Cytotoxicity against human OVCAR3 cells after 72 hrs by WST1 assay; format: functional, cell-based; settings: OVCAR-3, 72 h
PC-3 = test: Cytotoxicity against human PC3 cells after 72 hrs by WST1 assay; format: functional, cell-based; settings: PC-3, 72 h
MCF7 [2] = test: Cell cycle arrest in human MCF7 cells assessed as accumulation at G1 phase at 3 uM after 24 hrs by flow cytometry relative to control; format: functional
MCF7 [3] = test: Cell cycle arrest in human MCF7 cells assessed as accumulation at S phase at 3 uM after 24 hrs by flow cytometry relative to control; format: functional
MCF7 [4] = test: Cell cycle arrest in human MCF7 cells assessed as accumulation at G2/M phase at 3 uM after 24 hrs by flow cytometry relative to control; format: functional
Mus musculus [5] = test: Toxicity in SCID mouse at up to 500 mg/kg administered twice week for 7 weeks; format: organism-based; parameters: dose 500 mg/kg; settings: in vivo, 1176 h
Mus musculus [6] = test: Toxicity in SCID mouse assessed as histopathological examination of kidney at up to 500 mg/kg administered twice week for 7 weeks; format: organism-based; parameters: dose 500 mg/kg; settings: in vivo, 1176 h
Mus musculus [7] = test: Toxicity in SCID mouse assessed as histopathological examination of spleen at up to 500 mg/kg administered twice week for 7 weeks; format: organism-based; parameters: dose 500 mg/kg; settings: in vivo, 1176 h
Mus musculus [8] = test: Toxicity in SCID mouse assessed as histopathological examination of liver at up to 500 mg/kg administered twice week for 7 weeks; format: organism-based; parameters: dose 500 mg/kg; settings: in vivo, 1176 h
Mus musculus [9] = test: Toxicity in SCID mouse assessed as histopathological examination of cerebellum-brain at up to 500 mg/kg administered twice week for 7 weeks; format: organism-based; parameters: dose 500 mg/kg; settings: in vivo, 1176 h
Mus musculus [10] = test: Toxicity in SCID mouse assessed as blood analysis at up to 500 mg/kg administered twice week for 7 weeks; format: organism-based; parameters: dose 500 mg/kg; settings: in vivo, 1176 h

SMILES	IC50 (A549) [µM]	IC50 (NCI-H460) [µM]	IC50 (MCF7 [1]) [µM]	IC50 (MDA-MB-231) [µM]	IC50 (OVCAR-3) [µM]	IC50 (PC-3) [µM]	Activity (MCF7 [2]) [%]	Activity (MCF7 [3]) [%]	Activity (MCF7 [4]) [%]	Activity (Mus musculus [5])	Activity (Mus musculus [6])	Activity (Mus musculus [7])	Activity (Mus musculus [8])	Activity (Mus musculus [9])	Activity (Mus musculus [10])
COc1ccc(Cn2cnc3c4nc(=O)n(Cc5cccc(OC)c5)c-4ncnc32)cc1	1.5	1.6	6	2.6	5.1	2.5	–	–	–	–	–	–	–	–	–
COc1ccc(Cn2c3nc(-c4ccc([N+](=O)[O-])cc4)nc4c(ncn4Cc4ccc(OC)cc4)c-3nc2=O)cc1	2.7	2.5	5.7	3.3	5.2	4.3	–	–	–	–	–	–	–	–	–
COc1ccc(Cn2c3ncnc4c(ncn4Cc4ccc(OC)cc4)c-3nc2=O)cc1	2.5	2.8	7.5	4.01	14.5	4.8	79.15	5.87	14.5	Non-toxic	Non-toxic	Non-toxic	Non-toxic	Non-toxic	Non-toxic
COc1ccc(Cn2cnc3c4nc(=O)n(Cc5ccccc5)c-4ncnc32)cc1	1.7	1.8	7	2.3	5	4.05	–	–	–	–	–	–	–	–	–
COc1ccc(Cn2cnc3c4nc(=O)n(Cc5ccc(F)cc5)c-4ncnc32)cc1	1.6	1.5	4	2.5	9	2.1	–	–	–	–	–	–	–	–	–
